According to the supplement of paper PMC12592484:

What was measured:
Experiment in all cases: drug sensitivity score (DSS2, normalised partial AUC of dose-response, 72 h CellTiter-Glo viability) (DSS (dimensionless)); higher = more sensitive (stronger growth inhibition / cytotoxicity); extreme values may be limits of the assay
[1] = test system: 22Rv1
Method in brief: (§1)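 In BREEZE, the drug sensitivity score was derived as a partial area under a fitted logistic dose–response curve over the log of that curve's upper asymptote; a higher score marks a more sensitive response. The input came from low-passage primary prostate cancer-associated fibroblasts, PF179T, WPMY-1, LNCaP and 22Rv1 cells, each seeded into 384-well plates with compounds pre-dispensed at five doses spanning a 10,000-fold range. CellTiter-Glo 2.0 luminescence after 72 h gave viability, which was normalized to vehicle and positive-control wells.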

[2] = test system: CAF#1 (primary prostate cancer-associated fibroblasts of myCAF-like type)
Method in brief: as §1

[3] = test system: CAF#2 (primary prostate cancer-associated fibroblasts of iCAF-like type)
Method in brief: as §1

[4] = test system: CAF#3 (primary prostate cancer-associated fibroblasts of myCAF-like type)
Method in brief: as §1

[5] = test system: CAF#4 (primary prostate cancer-associated fibroblasts of iCAF-like type)
Method in brief: as §1

[6] = test system: CAF#5 (primary prostate cancer-associated fibroblasts of myCAF-like type)
Method in brief: as §1

[7] = test system: CAF#6 (primary prostate cancer-associated fibroblasts of iCAF-like type)
Method in brief: as §1

[8] = test system: CAF#7 (primary prostate cancer-associated fibroblasts of myCAF-like type)
Method in brief: as §1

[9] = test system: LNCAP
Method in brief: as §1

[10] = test system: PF179T
Method in brief: as §1

[11] = test system: WPMY-1
Method in brief: as §1

Structure (SMILES) | drug sensitivity score [1] | drug sensitivity score [2] | drug sensitivity score [3] | drug sensitivity score [4] | drug sensitivity score [5] | drug sensitivity score [6] | drug sensitivity score [7] | drug sensitivity score [8] | drug sensitivity score [9] | drug sensitivity score [10] | drug sensitivity score [11]
C/C(=C\c1csc(C)n1)[C@@H]1C[C@@H]2O[C@]2(C)CCC[C@H](C)[C@H](O)[C@@H](C)C(=O)C(C)(C)[C@@H](O)CC(=O)N1 [Ixabepilone] (tested concentration range 0.1-1000 nM) | 4.3 | 2.9 | 4.3 | 0.1 | 2.9 | 2.5 | 0 | 0.4 | 4.4 | 3.2 | 4.5
CC(C)C[C@H](NC(=O)CNC(=O)c1cc(Cl)ccc1Cl)B(O)O [Ixazomib] (tested concentration range 0.1-1000 nM) | 10.7 | 4.6 | 6.3 | 7.2 | 5.8 | 7.3 | 6 | 7.4 | 12.9 | 4.9 | 16.5
Nc1cc(COc2c(Cl)cc(C[C@H](N)C(=O)O)cc2Cl)c2oc(-c3ccccc3)nc2c1 [JPH203] (tested concentration range 0.5-5000 nM) | 0 | 0.1 | 2 | 0 | 0 | 1 | 0.1 | 0 | 0 | 0 | 0
CC(C)NC(=O)COc1cccc(-c2nc(Nc3ccc4[nH]ncc4c3)c3ccccc3n2)c1 [KD025] (tested concentration range 0.5-5000 nM) | 1 | 0 | 0.1 | 2.2 | 0.1 | 1.1 | 0 | 0.5 | 4.5 | 0 | 2.1
CC(C)[C@@H](CS(=O)(=O)C(C)C)N1C(=O)[C@@](C)(CC(=O)O)C[C@H](c2cccc(Cl)c2)[C@H]1c1ccc(Cl)cc1 [KRT-232] (tested concentration range 1-10000 nM) | 10 | 13.7 | 14.7 | 6.3 | 8.6 | 10.9 | 11.9 | 12.7 | 21.4 | 14.2 | 0
CS(=O)(=O)CCNCc1ccc(-c2ccc3ncnc(Nc4ccc(OCc5cccc(F)c5)c(Cl)c4)c3c2)o1 [Lapatinib] (tested concentration range 0.1-1000 nM) | 0 | 0 | 0 | 0.1 | 0 | 0 | 0 | 0 | 0.3 | 0 | 0
O=C(Nc1cnn2ccc(N3CCC[C@@H]3c3cc(F)ccc3F)nc12)N1CC[C@H](O)C1 [Larotrectinib] (tested concentration range 0.1-1000 nM) | 0 | 0 | 0 | 0 | 0 | 0 | 0 | 0 | 0 | 0 | 0
Oc1ccc2c(c1)CC[C@H](c1ccccc1)[C@@H]2c1ccc(OCCN2CCCC2)cc1 [Lasofoxifene] (tested concentration range 0.1-1000 nM) | 0 | 0 | 0 | 0 | 0 | 1.3 | 0 | 0 | 0 | 0 | 0
Nc1cccc2c1CN(C1CCC(=O)NC1=O)C2=O (stereo unspecified) [Lenalidomide] (tested concentration range 10-100000 nM) | 0 | 1.4 | 2.2 | 0 | 3 | 1.1 | 0 | 0 | 0 | 0 | 0
COc1cc2nccc(Oc3ccc(NC(=O)NC4CC4)c(Cl)c3)c2cc1C(N)=O [Lenvatinib] (tested concentration range 0.2-2500 nM) | 0 | 2.1 | 4.3 | 4.1 | 3 | 0.3 | 3.8 | 5.8 | 1.8 | 0.9 | 0.1
N#Cc1ccc(C(c2ccc(C#N)cc2)n2cncn2)cc1 [Letrozole] (tested concentration range 1-10000 nM) | 0 | 0 | 0 | 0 | 0 | 0 | 0 | 0 | 0 | 0 | 0
O=C1CCc2c(Oc3ccc4c(c3)[C@@H]3[C@H](O4)[C@H]3c3nc4cc(C(F)(F)F)ccc4[nH]3)ccnc2N1 [Lifirafenib] (tested concentration range 1-10000 nM) | 6.3 | 3.4 | 4.2 | 0 | 2.4 | 2.2 | 0.5 | 0.7 | 5.9 | 1.3 | 3.7
C[C@]1(O)C[C@@H](c2nc(-c3ccc4ccc(-c5ccccc5)nc4c3)c3c(N)nccn32)C1 [Linsitinib] (tested concentration range 1-10000 nM) | 1.3 | 1.5 | 2.6 | 0 | 0 | 3.2 | 0.2 | 0.7 | 0.6 | 0 | 0.5
Nc1nc(OCc2cc(Br)cs2)c2[nH]cnc2n1 [Lomeguatrib] (tested concentration range 1-10000 nM) | 0 | 0 | 1.4 | 0.1 | 0.1 | 0.2 | 0 | 0 | 0 | 0 | 0
NC(=O)N1CCC(CC(=O)N2CCC([C@H]3c4ncc(Br)cc4CCc4cc(Cl)cc(Br)c43)CC2)CC1 [Lonafarnib] (tested concentration range 5-50000 nM) | 18.6 | 8.2 | 9.7 | 9.2 | 9 | 7.6 | 8.5 | 7.7 | 16.1 | 3.1 | 16.6
C[C@H]1Oc2cc(cnc2N)-c2c(nn(C)c2C#N)CN(C)C(=O)c2ccc(F)cc21 [Lorlatinib] (tested concentration range 0.1-1000 nM) | 0.3 | 1.9 | 2.2 | 0 | 2.5 | 3.3 | 1.4 | 2.9 | 0 | 0 | 0.4
Cc1c(F)cc(C(=O)NC2CC2)cc1-c1ccc(C(=O)NCC(C)(C)C)cn1 [Losmapimod] (tested concentration range 1-10000 nM) | 0 | 0 | 0 | 0 | 0 | 0 | 0 | 0 | 3.7 | 0 | 0
CC[C@H](C)C(=O)O[C@H]1C[C@@H](C)C=C2C=C[C@H](C)[C@H](CC[C@@H]3C[C@@H](O)CC(=O)O3)[C@H]21 [Lovastatin] (tested concentration range 1-10000 nM) | 1 | 2.8 | 5.5 | 0.3 | 3.4 | 3.7 | 2.6 | 3 | 0 | 3.3 | 1.1
CNC(=O)c1cccc2cc(Oc3ccnc4cc(OCC5(N)CC5)c(OC)cc34)ccc12 [Lucitanib] (tested concentration range 1-10000 nM) | 1.8 | 6 | 5.9 | 6.3 | 7.4 | 3.9 | 6.6 | 13.5 | 3.4 | 5.7 | 2.8
O=C(O)CC[C@H]1CC[C@@](c2cc(F)ccc2F)(S(=O)(=O)c2ccc(Cl)cc2)CC1 [MK-0752] (tested concentration range 0.1-1000 nM) | 0 | 0 | 0 | 0 | 0 | 0 | 0 | 0 | 0 | 0 | 0
NC1(c2ccc(-c3nc4ccn5c(=O)[nH]nc5c4cc3-c3ccccc3)cc2)CCC1 [MK-2206] (tested concentration range 0.1-1000 nM) | 5.8 | 2.7 | 2.6 | 4 | 2 | 3 | 3.2 | 1.8 | 11.1 | 1.8 | 2.4
O=C(c1cccc(Cl)c1F)N1CCN(Cc2cccc(Nc3nccs3)n2)CC1 [MK-8745] (tested concentration range 1-10000 nM) | 4 | 2.6 | 4.3 | 6.8 | 1.1 | 2.8 | 3.4 | 2.6 | 14.7 | 5 | 7.6
O=C(Nc1cccc(NC(=O)c2cccc(O)c2O)c1)c1cccc(O)c1O [MST-312] (tested concentration range 1-10000 nM) | 10.3 | 12.8 | 15.3 | 8.9 | 12.9 | 13.5 | 10.5 | 11.6 | 15.6 | 10.7 | 10.2
CNC(=O)[C@@H](NC(=O)[C@H](CC(C)C)[C@H](O)C(=O)NO)C(C)(C)C [Marimastat] (tested concentration range 1-10000 nM) | 0 | 0 | 0 | 0.6 | 0 | 0 | 0 | 0 | 0 | 0 | 0.4
Cc1ccc(NC(=O)c2ccc(CN3CCN(C)CC3)cc2)cc1Nc1nc(-c2cccnc2)cs1 [Masitinib] (tested concentration range 1-10000 nM) | 5.3 | 4.1 | 5.3 | 0.6 | 7.6 | 3.1 | 1.6 | 1.9 | 4.3 | 2.4 | 5.3
CCN(CC)CCCC(C)Nc1c2ccc(Cl)cc2nc2ccc(OC)cc12 (stereo unspecified) [Mepacrine] (tested concentration range 5-50000 nM) | 17.3 | 9.1 | 14.9 | 11.3 | 14.2 | 13.4 | 9.9 | 12.6 | 19 | 13.7 | 19.6
